In brackets after ≈: the same amount, converted by molar mass.
How the values were obtained:
[1] = Growth inhibition of mouse RAW264.7 cells at 100 uM after 48 hrs by MTT assay; assay type: cell-based; conditions: read-out: GI
[2] = biological target: DNA gyrase subunit B (Mycobacterium smegmatis (strain ATCC 700084 / mc(2)155), UniProt A0QNE0)
Description: Inhibition of Mycobacterium smegmatis 155 6His-tagged DNA gyrase B catalytic domain ATPase activity expressed in Escherichia coli BL21 (DE3) pLysS cells assessed as inorganic phosphate release after 120 mins in presence of ATP by malachite green dye based assay

[3] = system: Mycobacterium tuberculosis; assay: microbe, parasite or virus in culture; conditions: H37Rv, 168 h
Description: Antimycobacterial activity against Mycobacterium tuberculosis H37Rv after 7 days by microplate alamar blue assay

[4] = biological target: DNA gyrase subunit B (Mycobacterium smegmatis (strain ATCC 700084 / mc(2)155)) (UniProt A0QNE0); assay: Binding affinity to Mycobacterium smegmatis 155 6His-tagged DNA gyrase B catalytic domain expressed in Escherichia coli BL21 (DE3) pLysS cells assessed as change in melting temperature by SYPRO orange dye based differential scanning fluorimetric analysis; conditions: Mycolicibacterium smegmatis MC2 155
Sequence of DNA gyrase subunit B (Mycobacterium smegmatis (strain ATCC 700084 / mc(2)155)) (A0QNE0 2-675 limits assumed): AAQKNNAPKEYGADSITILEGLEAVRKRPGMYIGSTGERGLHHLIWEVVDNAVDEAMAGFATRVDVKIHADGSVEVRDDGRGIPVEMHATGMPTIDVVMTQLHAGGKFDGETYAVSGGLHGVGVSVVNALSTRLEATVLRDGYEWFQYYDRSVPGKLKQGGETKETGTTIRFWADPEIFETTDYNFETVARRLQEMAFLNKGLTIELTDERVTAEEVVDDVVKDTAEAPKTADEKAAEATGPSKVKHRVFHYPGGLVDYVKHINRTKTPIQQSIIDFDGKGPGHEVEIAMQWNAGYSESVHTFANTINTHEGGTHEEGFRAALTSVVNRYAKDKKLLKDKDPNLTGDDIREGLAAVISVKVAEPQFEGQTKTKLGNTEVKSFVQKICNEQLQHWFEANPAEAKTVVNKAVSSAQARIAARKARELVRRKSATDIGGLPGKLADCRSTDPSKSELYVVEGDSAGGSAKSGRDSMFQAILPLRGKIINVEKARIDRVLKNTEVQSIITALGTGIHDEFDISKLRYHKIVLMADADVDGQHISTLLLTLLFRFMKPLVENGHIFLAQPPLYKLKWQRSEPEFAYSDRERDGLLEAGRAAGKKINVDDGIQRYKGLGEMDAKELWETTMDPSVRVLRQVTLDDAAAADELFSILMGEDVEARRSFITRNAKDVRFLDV

[5] = AUC (0 to t) in Wistar rat at 1 mg/kg, iv administered as single dose; assay type: ADME, organism-based; conditions: in vivo
[6] = AUC (0 to infinity) in Wistar rat at 1 mg/kg, iv administered as single dose; assay type: ADME, organism-based; set-up: dose 1 mg/kg, route intravenous, time infinity; conditions: in vivo
[7] = Apparent elimination half life in Wistar rat at 1 mg/kg, iv administered as single dose; assay type: ADME, organism-based; conditions: in vivo, read-out: betat1/2(app) (converted)
[8] = Total clearance in Wistar rat at 1 mg/kg, iv administered as single dose; assay type: ADME, organism-based; conditions: in vivo
[9] = Volume of distribution in Wistar rat at 1 mg/kg, iv administered as single dose; assay type: ADME, organism-based; conditions: in vivo
[10] = AUC (0 to t) in Wistar rat at 20 mg/kg, po administered as single dose; assay type: ADME, organism-based; conditions: in vivo
[11] = AUC (0 to infinity) in Wistar rat at 20 mg/kg, po administered as single dose; assay type: ADME, organism-based; set-up: dose 20 mg/kg, time infinity, route oral; conditions: in vivo
[12] = Cmax in Wistar rat at 20 mg/kg, po administered as single dose; assay type: ADME, organism-based; set-up: dose 20 mg/kg, route oral; conditions: in vivo
[13] = Tmax in Wistar rat at 20 mg/kg, po administered as single dose; assay type: ADME, organism-based; conditions: in vivo
[14] = Oral bioavailability in Wistar rat at 20 mg/kg administered as single dose; assay type: ADME, organism-based; conditions: in vivo
[15] = Time at which plasma concentration stays above in vitro Mycobacterium DNA gyrase IC50 in Wistar rat at 20 mg/kg, po; assay type: ADME, organism-based; conditions: in vivo
[16] = Protein binding in rat plasma at 100 ng/ml by HPLC analysis; assay type: ADME, cell-free; conditions: read-out: PPB (converted)
[17] = Protein binding in rat plasma at 2500 ng/ml by HPLC analysis; assay type: ADME, cell-free; conditions: read-out: PPB (converted)
[18] = Protein binding in rat plasma at 5000 ng/ml by HPLC analysis; assay type: ADME, cell-free; conditions: read-out: PPB (converted)
[19] = Protein binding in human plasma at 100 ng/ml by HPLC analysis; assay type: ADME, cell-free; conditions: read-out: PPB (converted)
[20] = Protein binding in human plasma at 2500 ng/ml by HPLC analysis; assay type: ADME, cell-free; conditions: read-out: PPB (converted)
[21] = Protein binding in human plasma at 5000 ng/ml by HPLC analysis; assay type: ADME, cell-free; conditions: read-out: PPB (converted)
[22] = Protein binding in human plasma by HPLC analysis; assay type: ADME, cell-free
[23] = Protein binding in rat plasma by HPLC analysis; assay type: ADME, cell-free

Sequence of DNA gyrase subunit B (Mycobacterium smegmatis (strain ATCC 700084 / mc(2)155), UniProt A0QNE0) (A0QNE0 whole entry): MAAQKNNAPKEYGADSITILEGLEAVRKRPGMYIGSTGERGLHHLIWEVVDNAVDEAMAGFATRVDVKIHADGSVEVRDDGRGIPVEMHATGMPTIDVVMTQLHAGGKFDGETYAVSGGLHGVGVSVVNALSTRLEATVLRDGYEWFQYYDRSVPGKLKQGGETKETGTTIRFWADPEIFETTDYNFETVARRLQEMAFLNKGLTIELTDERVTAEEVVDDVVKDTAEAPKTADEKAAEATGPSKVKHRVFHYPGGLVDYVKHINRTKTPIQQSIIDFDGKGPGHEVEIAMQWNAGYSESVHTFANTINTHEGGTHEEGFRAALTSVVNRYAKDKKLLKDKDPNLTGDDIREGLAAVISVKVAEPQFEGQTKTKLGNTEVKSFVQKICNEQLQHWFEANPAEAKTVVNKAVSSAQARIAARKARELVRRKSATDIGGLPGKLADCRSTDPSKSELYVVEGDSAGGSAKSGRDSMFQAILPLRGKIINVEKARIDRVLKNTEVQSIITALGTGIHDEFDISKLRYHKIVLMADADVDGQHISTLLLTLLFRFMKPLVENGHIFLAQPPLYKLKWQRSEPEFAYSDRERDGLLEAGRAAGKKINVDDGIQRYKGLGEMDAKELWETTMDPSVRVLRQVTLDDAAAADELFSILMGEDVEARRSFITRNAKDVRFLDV

SMILES | inhibition at 48 h, 100 µM [1] [%] | IC50 [2] [µM] | MIC [3] [µM] | also measured
O=C(NCc1ccccc1)N1CCN(c2ccnc3cc(Cl)ccc23)CC1 | 25.2 | 6.1 | 17.7 (≈ 6.73 µg/mL) | –
Fc1ccc(NC(=S)N2CCN(c3ccnc4cc(Cl)ccc34)CC2)cc1 | 23.9 | 2.5 | 7.8 (≈ 3.13 µg/mL) | ΔTm [4]: 4.1 °C; AUC(0-t) [5]: 1240 ng·h/mL; AUC(0-inf) [6]: 1350 ng·h/mL; half-life [7]: 2.04 h; clearance [8]: 13.3 mL/min/kg; Vd [9]: 0.99 L/kg; AUC(0-t) [10]: 18800 ng·h/mL; AUC(0-inf) [11]: 19300 ng·h/mL; Cmax [12]: 2910 ng/mL; Tmax [13]: 2.2 h; bioavailability [14]: 71.2%; Time [15]: > 6 h; fraction unbound at 100 ng/ml [16]: 0.065; fraction unbound at 2500 ng/ml [17]: 0.052; fraction unbound at 5000 ng/ml [18]: 0.046; fraction unbound at 100 ng/ml [19]: 0.078; fraction unbound at 2500 ng/ml [20]: 0.064; fraction unbound at 5000 ng/ml [21]: 0.057; PPB [22]: Dose-dependent effect; PPB [23]: Dose-dependent effect
CC(=O)c1ccc(NC(=O)N2CCN(c3ccnc4cc(Cl)ccc34)CC2)cc1 | 26.2 | 18.8 | 30.6 (≈ 12.5 µg/mL) | –
NNC(=O)c1ccncc1 [ISONIAZID] | – | – | 0.66 (≈ 0.0905 µg/mL) | –
Clc1ccc2c(N3CCN(Cc4ccc[nH]4)CC3)ccnc2c1 | 12.6 | 16.9 | 76.5 (≈ 25 µg/mL) | –
O=[N+]([O-])c1ccc(N2CCN(c3ccnc4cc(Cl)ccc34)CC2)c2nonc12 | 37.2 | 10.3 | 7.26 (≈ 2.98 µg/mL) | –
O=C(CN1CCN(c2ccnc3cc(C(F)(F)F)ccc23)CC1)NCc1ccccn1 | 51.2 | > 75 | 116 (≈ 50 µg/mL) | –
COc1ccc2c(N3CCN(CC(=O)NCc4ccccn4)CC3)ccnc2c1 | 33.5 | 51.6 | 63.9 (≈ 25 µg/mL) | –
O=C(CN1CCN(c2ccnc3ccccc23)CC1)NCc1ccccn1 | 23.5 | > 75 | 138 (≈ 50 µg/mL) | –
Cc1ccc(NC(=S)N2CCN(c3ccnc4cc(Cl)ccc34)CC2)cc1 | 15.8 | 13.8 | 63 (≈ 25 µg/mL) | –
S=C(NCc1ccccc1)N1CCN(c2ccnc3cc(Cl)ccc23)CC1 | 19.8 | 5.5 | 15.8 (≈ 6.25 µg/mL) | –
O=C(Nc1ccc(Cl)cc1)N1CCN(c2ccnc3cc(Cl)ccc23)CC1 | 26.2 | 9.9 | 31.5 (≈ 12.6 µg/mL) | –
O=C(CN1CCN(c2ccnc3cc(Cl)ccc23)CC1)NCCc1ccccn1 | 26.3 | 30.4 | 61 (≈ 25 µg/mL) | –
O=C(c1cc2cc(Cl)ccc2[nH]1)N1CCN(c2ccnc3cc(Cl)ccc23)CC1 | 29.8 | 10.3 | 14.7 (≈ 6.25 µg/mL) | –
O=C(c1cc2cc(F)ccc2[nH]1)N1CCN(c2ccnc3cc(Cl)ccc23)CC1 | 23.3 | 13.6 | 15.3 (≈ 6.25 µg/mL) | –
O=C(CN1CCN(c2ccnc3cc(Cl)ccc23)CC1)Nc1nc2ccc([N+](=O)[O-])cc2s1 | 23.6 | 16.1 | 25.8 (≈ 12.5 µg/mL) | –
S=C(Nc1ccc(Cl)cc1)N1CCN(c2ccnc3cc(Cl)ccc23)CC1 | 34.2 | 10.7 | 30 (≈ 12.5 µg/mL) | –
CCNC(=O)N1CCN(c2ccnc3cc(Cl)ccc23)CC1 | 27 | 45.3 | 157 (≈ 50 µg/mL) | –
O=[N+]([O-])c1cnc(N2CCN(c3ccnc4cc(Cl)ccc34)CC2)s1 | 35.1 | 9.6 | 33.2 (≈ 12.5 µg/mL) | –
O=C(c1cc2ccccc2[nH]1)N1CCN(c2ccnc3cc(Cl)ccc23)CC1 | 34.6 | 8.53 | 16 (≈ 6.25 µg/mL) | –
CO[C@H]1/C=C/O[C@@]2(C)Oc3c(C)c(O)c4c(O)c(c(/C=N/N5CCN(C)CC5)c(O)c4c3C2=O)NC(=O)/C(C)=C\C=C\[C@H](C)[C@H](O)[C@@H](C)[C@@H](O)[C@@H](C)[C@H](OC(C)=O)[C@@H]1C [RIFAMPIN] | – | – | 0.23 (≈ 0.189 µg/mL) | –
S=C(Nc1ccccc1)N1CCN(c2ccnc3cc(Cl)ccc23)CC1 | 16.5 | 4.12 | 16.3 (≈ 6.25 µg/mL) | –
O=C(CN1CCN(c2ccnc3cc(Cl)ccc23)CC1)NCc1ccco1 | 21.1 | 16.2 | 32.5 (≈ 12.5 µg/mL) | –
Clc1ccc2c(N3CCN(Cc4nc5ccccc5[nH]4)CC3)ccnc2c1 | 34.8 | 32.6 | 27.3 (≈ 10.3 µg/mL) | –

SMILES | inhibition at 48 h, 100 µM [1] [%] | IC50 [2] [µM] | MIC [3] [µM] | also measured
O=C(CN1CCN(c2ccnc3cc(Cl)ccc23)CC1)NCc1cccs1 | 33.4 | 14.8 | 31.2 (≈ 12.5 µg/mL) | –
O=C(Nc1ccc(F)cc1)N1CCN(c2ccnc3cc(Cl)ccc23)CC1 | 17.6 | 3.1 | 15.3 (≈ 5.88 µg/mL) | –
O=C(c1ccc[nH]1)N1CCN(c2ccnc3cc(Cl)ccc23)CC1 | 34.2 | 14.2 | 18.3 (≈ 6.25 µg/mL) | –
COc1ccc(NC(=S)N2CCN(c3ccnc4cc(Cl)ccc34)CC2)cc1 | 23.1 | 11 | 30.3 (≈ 12.5 µg/mL) | –
O=C(CN1CCN(c2ccnc3cc(Cl)ccc23)CC1)Nc1cc(C(F)(F)F)ccc1Cl | 24.7 | 31.3 | 24.2 (≈ 11.7 µg/mL) | –
O=[N+]([O-])c1ccc(NC(=S)N2CCN(c3ccnc4cc(Cl)ccc34)CC2)cc1 | 39.9 | 6.8 | 14.3 (≈ 6.13 µg/mL) | –
COc1ccc(NC(=O)N2CCN(c3ccnc4cc(Cl)ccc34)CC2)cc1 | 25.3 | 21.1 | 31.5 (≈ 12.5 µg/mL) | –
COc1ccc2[nH]c(C(=O)N3CCN(c4ccnc5cc(Cl)ccc45)CC3)cc2c1 | 16.4 | 24.3 | 29.7 (≈ 12.5 µg/mL) | –
O=C(CN1CCN(c2ccnc3cc(Cl)ccc23)CC1)Nc1ccccc1 | 26.2 | 33.1 | 35.5 (≈ 13.5 µg/mL) | –
O=C(CN1CCN(c2ccnc3cc(Cl)ccc23)CC1)NCc1ccccn1 | 36.4 | 12.2 | 31.6 (≈ 12.5 µg/mL) | –
CC(=O)c1ccc(NC(=S)N2CCN(c3ccnc4cc(Cl)ccc34)CC2)cc1 | 27.2 | 27 | 58.8 (≈ 25 µg/mL) | –
CCNC(=S)N1CCN(c2ccnc3cc(Cl)ccc23)CC1 | 21.9 | 40.6 | 74.6 (≈ 25 µg/mL) | –
CC(C)NC(=S)N1CCN(c2ccnc3cc(Cl)ccc23)CC1 | 36.3 | 40.4 | 71.6 (≈ 25 µg/mL) | –
O=C(c1ccccn1)N1CCN(c2ccnc3cc(Cl)ccc23)CC1 | 23.6 | 11 | 35.4 (≈ 12.5 µg/mL) | –
O=C(CN1CCN(c2ccnc3cc(Cl)ccc23)CC1)Nc1ncc([N+](=O)[O-])s1 | 11.3 | 14.6 | 31.2 (≈ 13.5 µg/mL) | –
O=C(CN1CCN(c2ccnc3cc(Cl)ccc23)CC1)NCc1ccccc1 | 15.3 | 23.8 | 63.3 (≈ 25 µg/mL) | –
CC1COc2c(N3CCN(C)CC3)c(F)cc3c(=O)c(C(=O)O)cn1c23 (stereo not drawn) [OFLOXACIN] | – | – | 2.16 (≈ 0.781 µg/mL) | –
O=C(Nc1ccccc1)N1CCN(c2ccnc3cc(Cl)ccc23)CC1 | 30.9 | 7.6 | 17 (≈ 6.25 µg/mL) | –
O=C(Nc1ccc([N+](=O)[O-])cc1)N1CCN(c2ccnc3cc(Cl)ccc23)CC1 | 41.8 to 42 | 9.2 | 30.4 (≈ 12.5 µg/mL) | –
Cc1ccc(NC(=O)N2CCN(c3ccnc4cc(Cl)ccc34)CC2)cc1 | 33.9 | 16 | 32.8 (≈ 12.5 µg/mL) | –
O=C(CN1CCN(c2ccnc3cc(Cl)ccc23)CC1)Nc1ccccn1 | 25.4 | 9.1 | 17.7 (≈ 6.76 µg/mL) | –
CC(=O)c1ccc(NC(=O)CN2CCN(c3ccnc4cc(Cl)ccc34)CC2)cc1 | 29.5 | 7.6 | 14.5 (≈ 6.13 µg/mL) | –
Clc1ccc2c(N3CCN(Cc4c[nH]c5ccccc45)CC3)ccnc2c1 | 22.2 | 8.3 | 16.2 (≈ 6.12 µg/mL) | –
CC(C)NC(=O)N1CCN(c2ccnc3cc(Cl)ccc23)CC1 | 34.4 | 43.9 | 155 (≈ 51.6 µg/mL) | –

From ChEMBL document CHEMBL3865798, “Engineering another class of anti-tubercular lead: Hit to lead optimization of an intriguing class of gyrase ATPase inhibitors” (Eur J Med Chem, 2016)
